Source: patent US20110064773A1, “PHARMACEUTICAL COMPOSITIONS COMPRISING A THYROID HORMON AND THEIR THERAPEUTIC USE” (UNIVERSITE JOSEPH FOURIER, priority 2007, published 2011)
Entries after “also recorded” stand apart in the source; their conditions may differ.

What was measured:
Assay type in all cases: in vivo, rat
Wistar rats [1] = assay: Growth rate (body weight) and food intake of Wistar rats; conditions: for Body mass: 2.5 μg/100 g continuous
Description: Adult male rat bred in the animal room facilities of Laboratory of Fundamental and Applied Bioenergetics (Wistar strain) or purchased from Charles-River Laboratories, Domaine des oncins, L'ARBRESLE France [(genetically obese normoglycemic (Zucker or Fa/Fa) or diabetic (ZDF)] were caged individually in stainless steel hanging cages and maintained in a 22° C., 50±10% relative humidity and 12 h:12 h light:dark environment. All animals were fed ad libitum with a standard rat chow (Safe A04, Villemoisson, France) and tap water. Body mass and food intake were recorded twice/thrice a week and fresh food was provided at the same time to ensure minimal disturbance to the animals' food behavior.
Eight-week old rats (300 g±10 g) were anesthetized by simultaneous intraperitoneal injection of diazepam 4 mg/kg and ketamine 100 mg/kg. In order to maintain body temperature during the surgery (10 min), animals were placed on a warm blanket. After interscapular shaving, a small incision of 0.5 cm of the skin allows the subcutaneous implantation of a small pellet (containing rT3 or 3′,3-T2) with a 10-gauge precision trochar. The pellets, manufactured by Innovative Research of America (Sarasota, Fla., USA) are constituted of a biodegradable matrix that effectively and continuously release the active product in the animal.
[…] (reverseT3) or 3-3′ diiodothyronine (3-3′ T2) were used at different doses (5, 0.5, or 0.1 mg/pellet) were implanted in order to provide a continuous and constant drug delivery over 60 days (which represents 25 μg, 2.5 μg or 0.5 μg/day/100 g BW).
Wistar rats were treated with rT3 hormone by a daily intraperitoneal injection (IP) (25 μg/100 g BW), a daily sub-cutaneous injection (SC) (25 μg/100 g BW), or a per os administration included in the rat food (25 μg/100 g BW). The continuous and constant administration was performed by using a pellet (25 μg/100 g BW).
However the role of the administration site was further investigated by comparing continuous administration of rT3 by osmotic pump implanted either subcutaneously or intraperitonally with the reference treatment administered by sub-cutaneous pellets. Wistar rats were treated for 21 days with placebo, sub-cutaneous pellet or sub-cutaneous or intraperitoneal osmotic pumps. rT3 was administered continuously (2.5 μg/100 g).
Wistar rats were treated by a continuous and constant administration of low doses of rT3 by 3 different methods of administration: • a sub-cutaneous pellet, • an osmotic pump placed under the skin, and • an osmotic pump placed in the peritoneal cavity.

Wistar rats [2] = assay: Indirect calorimetry (energy expenditure, respiratory quotient) of Wistar rats; conditions: for Energy expenditure and respiratory quotient (metabolic activity): 2.5 μg/100 g continuous, 21 days; for Energy expenditure (EE, metabolism): 25 μg/100 g BW
Source text: Energy expenditure as well as the nature of substrate oxidized (carbohydrates or lipids) were investigated by indirect calorimetry. This principle is based on the determinations of CO2 release (VCO2) and O2 consumption (VO2) by each animal. It assumes that O2 is entirely involved in substrate oxidation in the respiratory chain (leading to water production) while CO2 release is related to substrate decarboxylation (in the Krebs' cycle). These measurements allow assessing energy expenditure (EE) and respiratory quotient ([…], RQ). EE represent the absolute energy dissipation during rest and activity. RQ is a relative measurement indicating the ratio of carbohydrate versus lipid involved in oxidative pathway. A ratio of 1.0 indicates exclusive carbohydrate oxidation while a ratio of 0.7 indicates exclusive lipid oxidation. Each value between these two extreme values indicates the relative proportion of each substrate (of note protein oxidation was not evaluated). As an example, RQ approaches 0.7 during fasting, indicating lipid oxidation, conversely after feeding RQ increases close to 1 indicating carbohydrate oxidation resulting from food intake and blood insulin rise. Likewise, animals fed high-carbohydrate diets have higher RQs than those fed high-fat diets.
The indirect calorimetry system (Panlab, Barcelona, Spain) consists of cages, pumps, flow controllers, valves, and analyzers. It is computer-controlled in order to sequentially measure O2 and CO2 concentrations as well as air flow in four separate cages allowing four simultaneous determinations. Rats are isolated in one of the four metabolic chambers, and room air is used as a reference to monitor ambient O2 and CO2 concentrations periodically.
At predefined intervals, the computer sends a signal to store differential CO2 and O2 concentrations, flow rate, allowing computing VCO2, VO2, RQ, and EE (Weir equation) with data acquisition hardware (Metabolism, Panlab, Barcelona, Spain).

ZDF rats = assay: Plasma lipid profiles of ZDF rats; conditions: 2.5 μg/100 g BW, day of sacrifice
Source text: At the end of the experimental period, animals were sacrificed by decapitation, in order to avoid the well-known effects of general anesthetics on mitochondrial metabolism. Blood samples were immediately collected and plasma was frozen for subsequent determination of serum metabolites and hormones. Liver, muscles and fat depots were quickly excised and weighed. Liver median lobe was rapidly freeze-clamped. Muscles (plantaris, soleus and gastrocnemius) were frozen in isopentane precooled in liquid nitrogen. Mesenteric fat consisted of adipose tissue surrounding the gastro-intestinal tract from the gastro-oesophageal sphincter to the end of the rectum with special care taken in distinguishing and removing the pancreas. Retroperitoneal fat pad was taken as the distinct depot behind each kidney along the lumbar muscles. Epididymal fat consisted of adipose tissue on top of the epididymis. For subcutaneous depot measurement, a rectangular piece of skin was taken on the right side of each animal from the median line of the abdomen between the spine and the right hip to the first rib. Interscapular brown adipose tissue was removed and dissected free from adjacent muscles and white adipose tissue. The heart ventricles, the right kidney and the spleen were also excised, weighed and frozen.
Glucose and 3-hydroxybutyrate (3-HB) were measured enzymatically and non esterified fatty acid (NEFA) by colorimetric assay (Wako Chemicals).
Triglycerides and cholesterol were measured by classical routine automate apparatus.
To better understand the lipid metabolism, lipid profiles of free fatty acid (FFA, FIG. 29), triglycerides (FIG. 30), cholesterol (FIG. 31) and high density lipoprotein (HDL, FIG. 32) were analysed.

[3] = 25 μg/100 g BW pellet, vs placebo

N[C@@H](Cc1ccc(Oc2cc(I)c(O)c(I)c2)c(I)c1)C(=O)O [rT3, 3′,5′,3-triiodothyronine]
Body mass (Wistar rats [1]; osmotic pump in the peritoneal cavity, 21 days): significant reduction | Body mass (Wistar rats [1]; osmotic pump under the skin, 21 days): significant reduction | Food intake immediately after the pellet (Wistar rats [1]; 25 μg/100 g BW pellet, from day 4 until day 7): decrease | Influence on the animal mass (rat body weight) (Wistar rats [1]; 25 μg/100 g BW/day, continuous and constant administration (subcutaneous pellet), 8 days): reduce the rat body weight | Growth rate (body weight) (Wistar rats [1]; high dose 25 μg/100 g BW, subcutaneous pellet, 21 days, vs placebo): did not show any weight gain; also recorded: reduce the body weight | Appetite (food intake) (Wistar rats [1]; low dose 2.5 μg/100 g BW): without modifying their appetite | Body weight (body mass) (Wistar rats [1]; low dose 2.5 μg/100 g BW, sub-cutaneous pellet, 21 days, vs placebo): reduce the body weight; also recorded: significant reduction | Energy expenditure and respiratory quotient (metabolic activity) (Wistar rats [2]; intra-peritoneal pump): increase of the metabolic activity | Energy expenditure and respiratory quotient (metabolic activity) (Wistar rats [2]; sub-cutaneous pump): increase of the metabolic activity | Respiratory quotient (RQ) during the day (diurnal period) (Wistar rats [2]; [3]): almost identical to placebo | Respiratory quotient (RQ) during the night (Wistar rats [2]; [3]): higher | Energy expenditure (EE, metabolism) (Wistar rats [2]; daily intra-peritoneal injection): do no modify the metabolism | Energy expenditure (EE, metabolism) (Wistar rats [2]; daily per os): do no modify the metabolism | Energy expenditure (EE, metabolism) (Wistar rats [2]; daily sub-cutaneous injection): do no modify the metabolism | Energy expenditure (EE, metabolic expenses) (Wistar rats [2]; 25 μg/100 g BW/day, continuous subcutaneous pellet, 24 h calorimetry): enhanced metabolic expanses | Respiratory quotient (RQ) (Wistar rats [2]; 25 μg/100 g BW/day, continuous subcutaneous pellet, after 900 min): significant difference from the placebo treated animals | Energy expenditure (EE) (Wistar rats [2]; high dose 25 μg/100 g BW): significantly enhance | Respiratory quotient (RQ) (Wistar rats [2]; high dose 25 μg/100 g BW, vs placebo): increase | Respiratory quotient (RQ) (Wistar rats [2]; low dose 2.5 μg/100 g BW, vs placebo): increase | Respiratory quotient (RQ) (Wistar rats [2]; ultra low dose 0.25 μg/100 g BW, vs placebo): decrease | Cholesterol level (ZDF rats): not influenced | FFA in blood (ZDF rats): significantly enhanced | Triglycerides in blood (ZDF rats): significantly reduced
